Publication PMC9653409, “Generative deep learning enables the discovery of a potent and selective RIPK1 inhibitor” (Nature Communications, 2022)
Several values for one entry are separate records, joined by “and”; a condition that tells them apart may be missing. Equal entries are not always repeated.

Assays:
[1] = test system: U937 cells; test: TSZ-induced U937 cell necroptosis model (CCK8); assay type: cell-based; settings: Homo sapiens, U-937
Description: Cell necroptosis protection assays were performed in 96-well cell culture plates. Cells were plated in each well and cultured at 37 °C overnight. […] The cell survival rate was determined using a CCK8 cell viability assay kit and CLARIOstar (v5.61). […] All experiments were performed at least two times, and each EC50 value was expressed as mean ± standard deviation (SD).

[2] = target: RIPK2 (Homo sapiens, UniProt O43353); test: Kinase assay (Eurofins); assay type: biochemical
Sequence of RIPK2 (O43353 whole entry): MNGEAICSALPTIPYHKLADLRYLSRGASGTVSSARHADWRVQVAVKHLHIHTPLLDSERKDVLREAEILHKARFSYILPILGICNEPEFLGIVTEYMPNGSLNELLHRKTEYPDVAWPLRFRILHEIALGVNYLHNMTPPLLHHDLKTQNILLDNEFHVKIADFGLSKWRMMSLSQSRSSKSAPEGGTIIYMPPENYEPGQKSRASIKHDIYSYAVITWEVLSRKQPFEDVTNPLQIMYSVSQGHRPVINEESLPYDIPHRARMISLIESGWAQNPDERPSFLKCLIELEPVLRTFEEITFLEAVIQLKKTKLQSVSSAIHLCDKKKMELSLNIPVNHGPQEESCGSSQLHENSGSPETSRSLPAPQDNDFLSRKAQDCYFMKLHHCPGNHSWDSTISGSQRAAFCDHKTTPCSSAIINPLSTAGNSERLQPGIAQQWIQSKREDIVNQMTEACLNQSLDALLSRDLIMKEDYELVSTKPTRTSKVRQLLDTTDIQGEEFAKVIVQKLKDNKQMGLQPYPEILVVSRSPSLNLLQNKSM
Description: (§1) In vitro kinase activity assays were conducted through the Kinase Profiling Services provided by Eurofins (Eurofins, France). The protocol for the RIPK1 assay is briefly described as follows (Protocols for other kinases are very similar and can be found in http://www.eurofins.com/pharmadiscovery). RIPK1 kinase was incubated with the test compound in assay buffer containing 8 mM MOPS (pH 7.0), 0.2 mM EDTA, 250 μM […], 10 mM magnesium acetate, and 10 μM [γ-33P]-ATP for 15 min at room temperature. The reaction was initiated by the addition of the Mg/ATP mixture. After incubation for 40 min at room temperature, and the reaction was stopped by the addition of 3% phosphoric acid. A 10 μL portion of the reaction mixture was then spotted onto a P30 filter mat and washed four times for 4 min in 0.425% phosphoric acid and once in methanol prior to drying and scintillation counting.

[3] = target: MLK1 (Homo sapiens, UniProt P80192); test: Kinase assay (Eurofins); assay type: biochemical
Sequence of MLK1 (P80192 whole entry): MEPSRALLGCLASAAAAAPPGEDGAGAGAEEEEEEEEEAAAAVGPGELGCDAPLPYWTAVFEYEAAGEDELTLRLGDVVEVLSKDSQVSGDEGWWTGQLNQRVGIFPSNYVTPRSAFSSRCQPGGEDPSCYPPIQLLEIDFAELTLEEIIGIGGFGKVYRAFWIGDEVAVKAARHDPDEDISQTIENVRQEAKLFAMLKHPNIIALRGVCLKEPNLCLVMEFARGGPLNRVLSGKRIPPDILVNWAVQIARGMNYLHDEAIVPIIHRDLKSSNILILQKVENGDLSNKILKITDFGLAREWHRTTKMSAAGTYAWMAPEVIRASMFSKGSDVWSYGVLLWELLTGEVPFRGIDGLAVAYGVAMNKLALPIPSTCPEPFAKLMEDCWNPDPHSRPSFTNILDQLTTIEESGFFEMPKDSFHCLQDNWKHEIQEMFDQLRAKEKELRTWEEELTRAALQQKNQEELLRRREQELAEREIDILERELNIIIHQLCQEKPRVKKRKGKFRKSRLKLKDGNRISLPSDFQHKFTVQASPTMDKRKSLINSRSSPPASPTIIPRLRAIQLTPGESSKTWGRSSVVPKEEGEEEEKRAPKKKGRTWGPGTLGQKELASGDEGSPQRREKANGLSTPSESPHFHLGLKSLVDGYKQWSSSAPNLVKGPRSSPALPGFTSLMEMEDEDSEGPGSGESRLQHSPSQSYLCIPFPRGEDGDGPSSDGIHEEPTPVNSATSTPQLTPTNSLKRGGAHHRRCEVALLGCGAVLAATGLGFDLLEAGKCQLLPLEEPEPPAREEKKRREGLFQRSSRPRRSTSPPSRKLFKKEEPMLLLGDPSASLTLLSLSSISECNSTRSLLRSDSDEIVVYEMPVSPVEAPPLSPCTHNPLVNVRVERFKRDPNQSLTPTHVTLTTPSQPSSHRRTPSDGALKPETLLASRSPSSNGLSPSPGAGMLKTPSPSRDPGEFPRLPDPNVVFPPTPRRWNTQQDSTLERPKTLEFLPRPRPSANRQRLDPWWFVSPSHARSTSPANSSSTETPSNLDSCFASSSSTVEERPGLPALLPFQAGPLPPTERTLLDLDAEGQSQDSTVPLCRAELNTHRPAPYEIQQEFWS
Description: as §1

[4] = target: MLK2 (Homo sapiens, UniProt Q02779); test: Kinase assay (Eurofins); assay type: biochemical
Sequence of MLK2 (Q02779 whole entry): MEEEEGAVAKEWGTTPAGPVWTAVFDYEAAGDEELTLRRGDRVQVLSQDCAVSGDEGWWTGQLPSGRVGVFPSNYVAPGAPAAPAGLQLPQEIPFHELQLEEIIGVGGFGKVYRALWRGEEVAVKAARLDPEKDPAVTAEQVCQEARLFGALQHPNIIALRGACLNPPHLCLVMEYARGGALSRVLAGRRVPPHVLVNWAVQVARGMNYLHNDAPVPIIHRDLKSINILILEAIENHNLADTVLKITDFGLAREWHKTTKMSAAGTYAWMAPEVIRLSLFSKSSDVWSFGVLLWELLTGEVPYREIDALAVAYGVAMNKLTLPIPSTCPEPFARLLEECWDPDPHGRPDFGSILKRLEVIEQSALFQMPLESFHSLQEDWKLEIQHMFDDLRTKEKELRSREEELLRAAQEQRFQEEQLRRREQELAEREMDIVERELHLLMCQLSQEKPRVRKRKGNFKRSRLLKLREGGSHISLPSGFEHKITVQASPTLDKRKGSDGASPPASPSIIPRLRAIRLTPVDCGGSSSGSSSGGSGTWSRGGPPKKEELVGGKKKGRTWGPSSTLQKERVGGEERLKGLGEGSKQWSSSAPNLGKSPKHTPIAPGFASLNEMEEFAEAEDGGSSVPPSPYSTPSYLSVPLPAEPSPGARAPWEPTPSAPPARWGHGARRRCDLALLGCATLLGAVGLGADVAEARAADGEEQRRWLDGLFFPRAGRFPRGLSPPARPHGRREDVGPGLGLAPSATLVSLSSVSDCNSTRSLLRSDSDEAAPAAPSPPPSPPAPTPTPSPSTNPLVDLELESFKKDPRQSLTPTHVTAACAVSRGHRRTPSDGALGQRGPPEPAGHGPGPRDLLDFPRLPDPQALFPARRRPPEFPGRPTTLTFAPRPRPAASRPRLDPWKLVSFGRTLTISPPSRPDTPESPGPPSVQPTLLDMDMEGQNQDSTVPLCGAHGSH
Description: as §1

[5] = target: MLK3 (Homo sapiens, UniProt Q16584); test: Kinase assay (Eurofins); assay type: biochemical
Sequence of MLK3 (Q16584 whole entry): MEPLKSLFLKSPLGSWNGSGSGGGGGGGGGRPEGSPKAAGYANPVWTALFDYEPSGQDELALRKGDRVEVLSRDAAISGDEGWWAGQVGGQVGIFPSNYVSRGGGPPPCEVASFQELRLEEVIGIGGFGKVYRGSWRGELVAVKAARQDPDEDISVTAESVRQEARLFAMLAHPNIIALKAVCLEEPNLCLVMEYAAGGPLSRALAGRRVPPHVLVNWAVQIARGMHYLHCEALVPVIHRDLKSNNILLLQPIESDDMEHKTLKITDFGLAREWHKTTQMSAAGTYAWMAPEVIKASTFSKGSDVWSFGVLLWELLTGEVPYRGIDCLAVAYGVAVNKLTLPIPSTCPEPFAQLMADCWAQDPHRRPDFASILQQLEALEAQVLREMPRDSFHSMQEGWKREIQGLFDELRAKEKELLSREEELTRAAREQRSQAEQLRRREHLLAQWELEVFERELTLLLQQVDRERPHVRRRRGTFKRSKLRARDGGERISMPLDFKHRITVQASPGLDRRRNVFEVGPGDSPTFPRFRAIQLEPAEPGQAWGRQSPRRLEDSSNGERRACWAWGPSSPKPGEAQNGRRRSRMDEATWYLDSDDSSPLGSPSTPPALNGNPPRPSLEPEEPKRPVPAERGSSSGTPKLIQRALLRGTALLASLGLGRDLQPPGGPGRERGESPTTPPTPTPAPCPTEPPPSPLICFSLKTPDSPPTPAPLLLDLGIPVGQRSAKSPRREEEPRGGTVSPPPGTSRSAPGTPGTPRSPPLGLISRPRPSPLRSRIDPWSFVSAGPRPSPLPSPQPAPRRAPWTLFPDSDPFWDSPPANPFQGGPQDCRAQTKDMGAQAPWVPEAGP
Description: as §1

[6] = test system: TNFα-induced SIRS; test: TNFα-induced SIRS mouse model: H&E histology of organs; assay type: in vivo, C57BL/6 female mice; settings: 40 mg/kg i.p.
Description: The body temperatures of the mice were continuously monitored until 6 h after TNFα administration. At 6 h after TNFα injection, four mice in each group were killed at random, and the serums, heart, liver, spleen, lung, and kidney tissues were collected for analysis. Mice mortality was continuously monitored until 72 h after TNFα administration.
The heart, liver, spleen, lung, kidney and colon tissues were fixed directly in 4% paraformaldehyde (24 h), embedded in paraffin, and stained with H&E following standard procedures. All images were acquired using a Pannoramic MIDI scanner.

[7] = test system: DSS-induced IBD; test: DSS-induced IBD mouse model: colon length; assay type: in vivo, C57BL/6 female mice
Description: (§2) DSS (3% w/v) was administered in drinking water ad libitum for 7 d (from day 0 to day 7). DSS solution was replaced three times on day 2, day 4, and day 6. […] Three mice in each group were killed at random on day 7, and distal colon tissues were collected for analysis. The mice weight and survival rate were recorded daily.

[8] = test system: DSS-induced IBD; test: DSS-induced IBD mouse model: body weight; assay type: in vivo, C57BL/6 female mice; settings: for Body Weight (%): Figure 9a
Description: as §2

[9] = test system: phosphorylation of RIPK1, RIPK3, and MLKL; test: Western blot of necroptotic signaling proteins in HT29 cells; assay type: cell-based, human; settings: HT29, TSZ
Description: Cell pellets were collected and resuspended in RIPA lysis buffer (Beyotime), to which phenylmethylsulfonyl fluoride, a […], and a phosphatase inhibitor cocktail (Sigma) had been added. […] The supernatants were collected and subjected to western blot analysis.
The cell proteins or tissue proteins were separated in a polyacrylamide gel and transferred to a methanol-activated polyvinylidene fluoride membrane. The membrane was blocked for 2 h in Tris-buffered saline plus Tween-20 containing 5% milk and then immunoblotted sequentially with primary and secondary antibodies. Detection was performed with an ECL chemiluminescence kit (Abbkine). […]

[10] = test system: IL-1β; test: DSS-induced IBD mouse model: IL-1β in cultured colon supernatant (ELISA); assay type: in vivo, C57BL/6 female mice
Description: as §2
In the TNFα-induced SIRS model, at 6 h after TNFα injection, four mice in each group were killed at random, and the serums were collected, the serum concentrations of IL-1β and IL-6 were measured using ELISA kits (Neobioscience Technology) according to manufacturer’s instructions. […] The supernatant was collected by sequential centrifugation at 500 × g for 10 min and 3000 × g for 10 min. The concentrations of cytokines TNFα, IL-6, and IL-1β were measured using ELISA kits (Neobioscience Technology).

`CC(C)C(=O)Nc1nc2cc(-c3ccc4c(c3)c(C(=O)NC(C)c3ccccc3)cn4C)ccn2n1` (stereo not shown) [RI-962] was tested, and the viability at 56 pM ([1]; 0.000056 μM) was 1.42%, the viability at 0.000169 µM ([1]; 0.000169 μM) was 0.727% and the viability at 0.000508 µM ([1]; 0.000508 μM) was 0.579%. For the same molecule, the viability at 0.001524 µM ([1]; 0.001524 μM) was 2.66%, the viability at 0.004572 µM ([1]; 0.004572 μM) was 8.5% and the viability at 0.013717 µM ([1]; 0.013717 μM) was 37.9%. For the same molecule, the viability at 0.041152 µM ([1]; 0.041152 μM) was 78%, the viability at 0.123457 µM ([1]; 0.123457 μM) was 84.5% and the viability at 0.37037 µM ([1]; 0.370370 μM) was 96.7%. It also gave a viability at 1.11111 µM ([1]; 1.111111 μM) of 96.2%, a viability at 3.33333 µM ([1]; 3.333333 μM) of 90.4% and an EC50 ([1]; U937 treated with TSZ, 24 h) of 0.0178 µM. For the same molecule, the activity at 10 µM ([2]; 10 µM, read-out: Activity (%), RIPK2(h)) was 79%, the IC50 ([2]; RIPK2) was greater than 10 µM and the activity at 10 µM ([3]; 10 µM, read-out: Activity (%), MLK1(h)) was 36%. For the same molecule, the IC50 ([3]; MLK1) was greater than 10 µM, the activity at 10 µM ([4]; 10 µM, read-out: Activity (%), MLK2(h)) was 29% and the IC50 ([4]; MLK2) was greater than 10 µM. The “folds less potent against MLK3 than against RIPK1” value [5] was 107 folds, the activity at 10 µM ([5]; 10 µM, read-out: Activity (%), MLK3(h)) was 20% and the IC50 ([5]; MLK3) was 3.75 µM. For the same molecule, the “damage to the liver and kidney (H&E)” value [6] was “attenuated damage to the liver and kidney”, the “DSS-induced shortening of colon length” value ([7]; 40 mg/kg i.p. once a day, day 7) was “markedly reduced” and the “Colon Length” value ([7]; Figure 9b, individual replicates 1-3) was 52.0 mm and 54.0 mm (2×). The “loss of body weight” value ([8]; 40 mg/kg i.p. once a day) was “strongly ameliorated this loss of body weight”, the “Body Weight (%)” value ([8]; day 0) was 100% and the “Body Weight (%)” value ([8]; day 1) was 97.11%. The “Body Weight (%)” value ([8]; day 2) was 98.41%, the “Body Weight (%)” value ([8]; day 3) was 102.3% and the “Body Weight (%)” value ([8]; day 4) was 103.1%. For the same molecule, the “Body Weight (%)” value ([8]; day 5) was 104.6%, the “Body Weight (%)” value ([8]; day 6) was 103.5% and the “Body Weight (%)” value ([8]; day 7) was 103.5%. For the same molecule, the “Body Weight (%)” value ([8]; day 8) was 99.79%, the “Body Weight (%)” value ([8]; day 9) was 98.12% and the “Body Weight (%)” value ([8]; day 10) was 98.15%. The “Body Weight (%)” value ([8]; day 11) was 100.8%, the “Body Weight (%)” value ([8]; day 12) was 100.7% and the “Body Weight (%)” value ([8]; day 13) was 102.5%. For the same molecule, the “Body Weight (%)” value ([8]; day 14) was 104.7%, the “phosphorylation of RIPK1, RIPK3 and MLKL in intact cells” value [9] was “markedly inhibited the phosphorylation of RIPK1 and its downstream signaling proteins RIPK3 and MLKL in a dose-dependent manner” and the “content of IL-1β in cultured colonic tissue supernatants” value ([10]; 40 mg/kg i.p., day 7) was “substantially reduced”. The IL-1β ([10]; Figure 9h, individual replicates 1-3) was 46.88 pg/mL and 42.98 pg/mL and 47.29 pg/mL.
